The values that follow come from the METLIN SMRT retention time set (Domingo-Almenara et al. 2019).

Molecules are shown by their SMILES.

The data set can be described thus: gradient 5% acetonitrile 3 min, to 50% in 2 min, to 85% in 15 min, held 3 min, 100 µL/min. As to conditions: column: Zorbax Extend-C18 2.1 x 50 mm; eluents: water / acetonitrile, 0.1% formic acid. Put shortly: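 Retention times come from adduct peaks that were picked computationally and then checked by hand. The standards, pure and pooled in mixtures of ~100 molecules, were run on a Zorbax Extend-C18 column (2.1 × 50 mm, 1.8 μm) at 100 μL/min with water and acetonitrile, each with 0.1% formic acid. Detection was by quadrupole time-of-flight mass spectrometry in positive and negative ionization mode, with a dead volume of 40 μL and a dwell volume of 900 μL.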
Turning to `Cc1nc(C2CCOCC2)n(C2CCN(S(=O)(=O)c3ccc(C(C)(C)C)cc3)C2)n1` (centres undefined), the RP-LC retention time stood at 871 s.

`C[C@H](NC(=O)Cc1cc(F)cc(F)c1)C(=O)N[C@@H]1C(=O)N(C)c2ccccc2-c2ccccc21` gave an RP-LC retention time of 949 s.

`COc1ccc(-c2nc3ncccn3c2Nc2ccc(F)cc2)cc1` registered an RP-LC retention time of 714 s.

In turn, `CC(C)C(=O)NCC12CCC=C1N(C)C(=O)CC2` (centres undefined) came in with an RP-LC retention time of 636 s.

In turn, `O=C(NCCC1CCN(C(=O)Nc2ccc(F)cc2F)CC1)C1CCCC1` gave an RP-LC retention time of 777 s.

`O=C(CCc1nc(-c2ccc(N3CCCCC3)cc2)no1)NCCC1=CCCCC1` yielded an RP-LC retention time of 1090 s.

For the compound `Cc1cccn2cc(C(=O)NCc3cccc(F)c3)nc12`, the RP-LC retention time worked out at 645 s.

Turning to `CCn1c(C(=O)N(C)c2ccc(Br)cc2)cc2c(=O)oc3ccccc3c21`, the RP-LC retention time was 1030 s.

On to `COc1cc(NC(=O)c2cn3c(n2)CN(CC(C)C)CC3)cc(OC)c1`, for which the RP-LC retention time worked out at 818 s.

In the case of `COc1ccc(C)cc1NC(=O)N1CCC2(CC1)NC(=O)c1ccc(Cl)cc1N2`, the RP-LC retention time amounted to 806 s.

`Cc1ccc(C)c(-c2cc3c4nnc(CCC(=O)N5CCC(C(N)=O)CC5)n4ccn3n2)c1`: the RP-LC retention time stood at 669 s.

In turn, `CCS(=O)(=O)N1C[C@@H](COC)[C@H](c2ccccn2)C1` displayed an RP-LC retention time of 585 s.

As for `COCC(=O)NCc1nnnn1C1CCCCC1`, the RP-LC retention time was 608 s.

Regarding `C[C@@H](NCCc1ccc(O)cc1)[C@@H](O)c1ccc(O)cc1`, the RP-LC retention time amounted to 362 s.

Take `O=C(NCc1ccco1)c1csc(N2CCN(c3cccc(Cl)c3)CC2)n1`: the RP-LC retention time was found to be 1080 s.

`CCC(C)NC(=O)c1nnn(Cc2cccc(Cl)c2)c1-n1cccc1` (centres undefined) displayed an RP-LC retention time of 1040 s.

In turn, `CCc1ccc(NC(=O)N2CCC(n3cnc4c(Cl)cccc4c3=O)CC2)cc1` returned an RP-LC retention time of 890 s.

With `COc1ccc(CCNC(=O)C2CCN(S(=O)(=O)N(CC(C)C)CC(C)C)CC2)cc1OC`, the RP-LC retention time was 992 s.

`CC1=C(c2ccc(F)cc2)S(=O)(=O)N=C1N1CCCN(C(=O)C2CCC2)CC1` had an RP-LC retention time of 790 s.

Compound `CCc1nnc(-c2cc(C)n(CC(=O)NC(C)c3ccccc3)c2C)o1` (centres undefined) gave an RP-LC retention time of 805 s.

In turn, `CCn1c(=O)c(N2CCN(C(=O)Nc3ccccc3Br)CC2)nc2ccccc21` yielded an RP-LC retention time of 1010 s.

Take `CN1C(=O)c2cccn2CC1CNC(=O)c1cccs1` (centres undefined): the RP-LC retention time came out at 628 s.

Turning to `O=C(CCn1cnc2cc(-c3noc(-c4ccc(F)cc4)n3)ccc21)N1CCOCC1`, the RP-LC retention time was 706 s.

With `Cn1nc(CNC(=O)c2ccc(Cl)cc2)c2ccccc21`, the RP-LC retention time worked out at 852 s.

`CCc1nc(-n2cccc2)sc1C(=O)Nc1ccc(F)c(C)c1` came in with an RP-LC retention time of 1170 s.

`COc1ccc(N2CCN(C(=O)c3cc(-c4ccncc4)cn3C)CC2)cc1` displayed an RP-LC retention time of 599 s.

In turn, `COc1ccc(CNC(=O)C2CCCN(c3nc4ccsc4c(=O)n3-c3ccc(F)cc3)C2)cc1` (centres undefined) gave an RP-LC retention time of 857 s.

`O=C(CN1C(=O)CC(c2ccccc2)S(=O)(=O)c2ccccc21)NC1CCCC1` (centres undefined) came in with an RP-LC retention time of 831 s.

Compound `COC(=O)c1ccsc1NC(=O)CCS(=O)(=O)c1ccccc1` had an RP-LC retention time of 788 s.

For the compound `O=C(Cn1c(-c2cnccn2)nc2ccccc21)N1CCN(C(=O)c2ccco2)CC1`, the RP-LC retention time worked out at 615 s.

Turning to `COCCN1CCn2cc(S(=O)(=O)Nc3ccc(OC)cc3)cc2C1=O`, the RP-LC retention time worked out at 662 s.

Turning to `CCOc1ccc(CNC(=O)CN2CC=C(c3cnn(-c4ccccc4)c3)CC2)cc1OCC`, the RP-LC retention time came to 746 s.

As for `O=C(NCc1ccccc1)C1=C2CCCN2c2ccc(F)cc2S1(=O)=O`, the RP-LC retention time stood at 836 s.

In turn, `CCOc1cccc(C2CC(c3ccc4c(c3)OCO4)=NC3(CCN(C(C)C)CC3)N2)c1O` (centres undefined) registered an RP-LC retention time of 600 s.

On to `COc1cc(-c2ccc(C)cc2)nc2ccc(NC(=O)c3ccco3)cc12`, for which the RP-LC retention time was found to be 713 s.

`Cc1ccccc1CNC(=O)c1ccc(CN2CCN(Cc3ccccc3)C(=O)C2=O)cc1` yielded an RP-LC retention time of 797 s.

On to `Cc1ccc(-c2ccc(N3CCCC(C(=O)NCCC4=CCCCC4)C3)nn2)cc1C` (centres undefined), for which the RP-LC retention time was 888 s.

In the case of `O=C(NCCn1nc(-c2ccco2)ccc1=O)c1ccc2ncsc2c1`, the RP-LC retention time stood at 610 s.

`O=C(Nc1ccc2c(c1)OCO2)C1CCN(c2cc(N3CCCCC3)ncn2)CC1` yielded an RP-LC retention time of 677 s.

For `CCNC(=O)c1cc(C)nc2ccc(C(C)C)cc12`, the RP-LC retention time stood at 697 s.

The compound `CCCCN(CCCC)C(=O)C1CCCN1S(=O)(=O)c1cccc2nsnc12` (centres undefined) came in with an RP-LC retention time of 1080 s.

Consider `COc1ccc2oc(-c3noc(C4CC(=O)N(c5ccccc5)C4)n3)c(C)c2c1` (centres undefined), for which the RP-LC retention time amounted to 1040 s.

Take `CNC(=O)NC1CCN(c2nc3cccnc3n(Cc3ccccc3)c2=O)CC1`: the RP-LC retention time was 801 s.

The compound `Cc1cccc(S(=O)(=O)N2CCCC2c2nc(-c3cccc(C(F)(F)F)c3)no2)c1` (centres undefined) returned an RP-LC retention time of 1200 s.

`CCc1nc(-c2ccc(S(=O)(=O)N3CCC(C(=O)NC4CCCCC4)CC3)cc2)no1` registered an RP-LC retention time of 954 s.

In the case of `COc1ccc(CNC(=O)N2c3ccccc3CC2c2nc(C(C)C)no2)cc1` (centres undefined), the RP-LC retention time was 1000 s.

`O=C(Cc1ccccc1Cl)N1CCN(Cc2noc3ccccc23)CC1`: the RP-LC retention time came to 739 s.

The compound `O=C(O)c1nnn(-c2ccccc2)c1-c1ccccn1` displayed an RP-LC retention time of 657 s.

In the case of `CCCC(=O)Nc1cc2c(cc1N1CCC(C)CC1)n(C)c(=O)c(=O)n2C`, the RP-LC retention time is 820 s.

On to `CN(CCNC(=O)C1=Cc2ccccc2OC1)C1CCCCC1`, for which the RP-LC retention time stood at 675 s.

For the compound `CCCCn1c(=O)c2ccccc2n(Cc2nc(-c3cccc(OC)c3)no2)c1=O`, the RP-LC retention time stood at 1160 s.

`CC(=O)N1CCc2cc(N3CC(C(=O)NCc4ccccc4)CC3=O)ccc21` (centres undefined) showed an RP-LC retention time of 671 s.

Compound `CCN(CC)S(=O)(=O)c1c[nH]c(=O)[nH]c1=O` returned an RP-LC retention time of 563 s.

As to `Cc1c(Cc2ccccc2)sc(NC(=O)C2CCCCC2C(=O)O)c1C(N)=O` (centres undefined), the RP-LC retention time turned out to be 769 s.

Take `CN1C(=O)Cc2ccccc2C1C(=O)NCc1cc(F)ccc1F` (centres undefined): the RP-LC retention time came out at 716 s.

For `O=C(NCc1cccc(C(F)(F)F)c1)C1CCN(c2nnc(-c3ccccc3)o2)CC1`, the RP-LC retention time came to 896 s.

`CCCC(NC(=O)c1ccc(C)cc1)C(=O)Nc1nc2ccccc2[nH]1` (centres undefined) came in with an RP-LC retention time of 716 s.

For `O=C(Nc1cccc(OCc2nnc(-c3ccc(Cl)cc3)o2)c1)c1cccnc1`, the RP-LC retention time came out at 811 s.

With `CN(C)S(=O)(=O)c1ccc(-c2nnc(C(=O)NCc3ccncc3)o2)cc1`, the RP-LC retention time stood at 604 s.

Regarding `Cc1nc2ccn(Cc3ccco3)c(=O)c2cc1C(=O)NCc1ccc2c(c1)OCO2`, the RP-LC retention time amounted to 722 s.

Compound `O=S(=O)(c1ccc(Cl)cc1)N1CC(F)(F)C[C@H]1CN1CCc2ccccc2C1` gave an RP-LC retention time of 647 s.

For the compound `CCOc1ccccc1N1CCN(S(=O)(=O)c2nn(CC)cc2C(=O)NCC(=O)OC)CC1`, the RP-LC retention time turned out to be 896 s.

The compound `CCn1c(=O)sc2cc(S(=O)(=O)N3CCC(C(=O)NCc4cccc(C)c4)CC3)ccc21` gave an RP-LC retention time of 932 s.

For the compound `CC(C)n1cnc(S(=O)(=O)N2CCC(C(=O)NCc3ccc(Br)cc3)CC2)c1`, the RP-LC retention time was 782 s.

With `COc1ccc(-c2cn3c(CC(=O)N(Cc4cccs4)C4CCCCC4)csc3n2)cc1OC`, the RP-LC retention time is 931 s.

Consider `CC1=NS(=O)(=O)N(C)C=C1C(=O)OCc1noc(-c2ccccc2Cl)n1`, for which the RP-LC retention time came out at 975 s.

The compound `CCOC(=O)c1cc(C2CC2)nc2c1c(=O)n(Cc1ccc(Br)cc1F)c(=O)n2C` had an RP-LC retention time of 1270 s.

`CCn1nc(C)cc1C(=O)N(Cc1ccccn1)c1nc2c(OC)ccc(OC)c2s1` yielded an RP-LC retention time of 883 s.

Take `CCN(CC)CCCNC(=O)c1nnc(-c2ccc(S(=O)(=O)N3CCC(C)CC3)cc2)o1`: the RP-LC retention time came to 696 s.

In turn, `Cn1nc(-c2nnc(-c3ccccc3Cl)o2)c2c1CCN(C(=O)c1ccco1)C2` yielded an RP-LC retention time of 784 s.

On to `CSc1ccc(CNC(=O)CC2c3ncccc3C(=O)N2c2ccccc2)cc1` (centres undefined), for which the RP-LC retention time is 752 s.

Consider `O=C(NCc1cc(F)ccc1F)C1CCN(c2nnc(-c3ccccc3)o2)CC1`, for which the RP-LC retention time was determined as 819 s.

With `Cc1ccc(-c2nc(-c3ccc4c(c3)nc(C)c(=O)n4C)no2)cc1F`, the RP-LC retention time turned out to be 1150 s.

Turning to `Cc1ccc(C(=O)N2CCN(c3nnc4ccccn34)CC2)cc1F`, the RP-LC retention time was 647 s.

`O=C(NCc1cccc(Cl)c1)C1CCN(c2cncnc2N2CCOCC2)CC1` had an RP-LC retention time of 647 s.

For `COc1ccc(OCC(O)CN2CCN(c3ccc(Cl)cc3)CC2)cc1` (centres undefined), the RP-LC retention time turned out to be 795 s.

The compound `CCn1c(=O)c(N2CCCC(C(=O)N3CCN(c4cc(Cl)ccc4C)CC3)C2)nc2ccccc21` (centres undefined) registered an RP-LC retention time of 1420 s.

On to `CCC1Oc2ccc(S(=O)(=O)N3CCC(C(=O)NCc4ccccc4)CC3)cc2NC1=O` (centres undefined), for which the RP-LC retention time was 824 s.

The compound `CC1CCN(S(=O)(=O)c2cc(-c3ccc(=O)[nH]n3)cs2)CC1` displayed an RP-LC retention time of 772 s.
